Measurements reported in patent US6710077B1, “Use of thiocarboxanilide derivatives for the preparation of a medicament for preventing the transmission of HIV to uninfected cells and contraceptive compositions comprising the said derivatives” (Uniroyal Chemical Company, Inc., priority 1996, dated 2004).

How the values were obtained:
[1] = tested on: HIV-1 infection of uninfected MT-2 cells; details: MT-2 cells pretreated with 2 μM, drug removed, continued presence of HIV-1
Protocol: FIG. 4A: Uninfected MT2 cells were incubated for 18 hours with varying concentrations of Compound IA in 1 ml media, then the cells were pelleted by centrifugation, and washed twice by resuspension in 10 ml medium followed by centrifugation. The cells were exposed to identical inocula of HIV-1 and cultured in the absence of added drug. Four days after removal of Compound IA, the extent of HIV-1 infection was assessed by measurement of syncytia formation (●), viral p24 antigen levels (▴), and RT activity (∘), in cell-free supernatants. […] Uninfected MT2 cells were incubated for 18 hours in the absence (∘) or the presence of 0.5 μM (▴), 1 μM (∇), or 2 μM (●), of Compound IA. […] Viral cytopathicity was scored by microscopic assessment of syncytia formation. […]
FIG. 5A: Uninfected MT2 cells were incubated for 18 hours in the absence (▪) or the presence (●) of 2 μM of Compound IA, then the cells were isolated and cultured in the absence of drug. At various times thereafter, HIV-1 was added and virus infectivity assessed by microscopic analysis of syncytium formation. […]
All cells were cultured in RPMI medium containing 10% fetal bovine serum. […] Virus production was assessed by measurement of RT activity and viral p24 antigen levels in the culture supernatants. […]

[2] = tested on: HIV-1 chronically-infected H9 cells; test: Incubation of HIV-1 chronically-infected H9 cells with test compounds, then infectivity on MT-2 cells; type: cell-based
Excerpt: FIG. 2 depicts the effect of pretreatment of chronically-infected H9 cells with Compound IA or UC84 on (A) virus particle release from H9 cells during drug exposure, as assessed by measurement of HIV-1 p24 levels; (B) infectivity of isolated virus produced by H9 cells during drug treatment, as assessed by the ability to subsequently infect MT2 cells in the absence of drug; and (C) the ability of Compound IA-pretreated chronically-infected H9 cells to subsequently infect MT2 cells in co-culture experiments carried out in the absence of drug. The data illustrated for (B) and (C) were obtained four days after exposure of MT2 cells to virus or H9 cells, respectively. (∘) Compound UC84; (●) Compound IA.
The cells were then separated from the culture supernatants by centrifugation at 1000×g for 10 min. The virus particles were isolated from the culture supernatants and from residual Compound IA using Centriprep-100 centrifugal concentrating devices and the dilution/concentration protocol described above in Example 1. The pelleted H9 cells were washed by suspension in 10 ml RPMI, followed by centrifugation at 1000×g for 10 min. The cell pellet was resuspended in 4 ml RPMI/10% FBS, and used in co-culture experiments as described below.
Aliquots of the final concentrated HIV suspension were added to MT-2 cells ([…] cells/ml). Virus infectivity was assessed 6 days post-infection by analysis of syncytium formation, and RT activity and p24 antigen in the MT-2 cell culture supernatants. Similarly, aliquots of the drug-treated H9 cells were added to MT-2 cells (3×10^5 cells/ml) to give a final MT-2:H9 cell ratio of 30:1. Cells were co-cultured for 4 days, and HIV infection of MT-2 cells was scored by assessing syncytium formation and by analysis of RT activity in the culture supernatants.

HIV-1 = test: Preincubation of isolated HIV-1 with test compounds, then infection of PHA-activated CBMC; details: 2 hours at 37° C., drug removed, RT activity and p24 on day 7, FIG. 1
Protocol: Identical viral inocula (with respect to viral p24 levels) were then added to PHA-activated CBMC. Viral infectivity was assessed by measurement of RT activity in cell-free culture supernatants after 7 days incubation of cells and virus. […] The results are averages ±S.D. of triplicate determinations from three separate experiments.
All cells were cultured in RPMI medium containing 10% fetal bovine serum. HIV-1 stocks were propagated by subculture in MT-2 cells; aliquots of the cell-free culture supernatants were generally used as viral inocula. In some cases, virus was further concentrated from these cell-free supernatants by ultracentrifugation. CBMC were prestimulated with phytohemagglutinin (PHA) prior to use in infection experiments, as described in Rooke et al, Virology 176: 205-215 (1990). Stock solutions of the test compounds were prepared in dimethyl sulfoxide (DMSO). […] Virus production was assessed by measurement of RT activity and viral p24 antigen levels in the culture supernatants.
After incubation, drug-free RPMI was added to a final volume of 15 ml and the diluted sample was concentrated to a final volume of 0.7 ml using a Centriprep-100 centrifugal concentrating device, according to manufacturer's directions. […] On day 7, culture supernatants were isolated and HIV production assessed by measurement of RT activity and p24 antigen levels in the cell-free supernatants.

[3] = tested on: PBL cells isolated from blood of HIV-1 infected patients; test: Incubation of PBL from HIV-1 infected patients with compound, then co-culture with CBMC; type: cell-based; details: for infectivity of HIV-1 produced by patient PBL: 10 μM, 2 hr at 37° C., drug removed, co-culture with CBMC, p24 antigen, FIG. 3
Protocol: FIG. 3 depicts the effect of pretreatment of peripheral blood lymphocytes (PBL) from HIV-1 infected patients with Compound IA on the subsequent virus infectivity of CBMC cells. 2×10^6 isolated PBL cells were incubated for 2 hours with media only (●), 10 μM nevirapine (▪), or 10 μM Compound IA (▴), then residual drug was removed. The cells were then co-cultured with 2×10^6 CBMC cells and p24 production was monitored.
PBL cells (2×10^6 cells) isolated from blood of HIV-1 infected patients were incubated with media, 10 μM nevirapine and 10 μM Compound IA, in a total volume of 1 ml for 2 hr at 37° C. Excess drug was then removed by pelleting the cells by centrifugation at 300×g for 10 min and removal of the medium. The cell pellet was washed by suspension in 10 ml media, followed by centrifugation. This washing step was repeated twice. The final cell pellet was resuspended in 1 ml media, then co-cultured with 1 ml of activated CBMC (2×10^6 cells) The culture medium was changed every two days, and fresh activated CBMC (2×10^6 cells) were added once a week. HIV-1 production was monitored by measurement of p24 antigen levels in cell-free culture supernatants.
FIG. 3 illustrates the results obtained using PBL from three different patients.

| Compound | duration of resistance to the cytopathic effect of HIV-1 [1] | resistance of pretreated cells to the cytopathic effect of HIV-1 ([1]; syncytium formation) | persistence of attenuated infectivity following removal of extracellular compound ([2]; chronically-infected H9 cells) | infectivity of virus produced by H9 cells following removal of compound ([2]; pretreated, washed H9 cells co-cultured with MT-2 cells in absence of drug) | infectivity of virus particles isolated after exposure of chronically-infected H9 cells ([2]; virus isolated from culture supernatants, added to MT-2 cells in absence of drug, FIG. 2) | viral infectivity after preincubation of isolated HIV-1 with compound (HIV-1) | viral infectivity after 30 days co-culture with uninfected CBMC ([3]; 10 μM pretreatment of patient PBL, 30 days co-culture) | infectivity of HIV-1 produced by patient PBL [3] |
| --- | --- | --- | --- | --- | --- | --- | --- | --- |
| CC(C)=CCOc1cc(NC(=S)c2ccoc2C)ccc1Cl [Compound IA, N-[4-chloro-3-(3-methyl-2-butenyloxy)phenyl]-2-methyl-3-furancarbothioamide] | at least 9 days | completely resistant | at least 4 days | also attenuated in infectivity | significantly attenuated in infectivity | rendered non-infectious | No viral infectivity | abolished the infectivity |
| Cc1ccnc2c1NC(=O)c1cccnc1N2C1CC1 [nevirapine, reference compound] |  |  |  |  |  | No viral inactivation |  | unable to significantly delay viral infectivity |
